The source of these data is US10981902B2 (Merck Sharp & Dohme Corp., priority 2017, dated 2021).

The experiment concerns the target T1, human M4 muscarinic acetylcholine receptor (Homo sapiens, UniProt P08173).
T1 construct: expressed in transfected cells; host or cells: CHO-K1
T1 sequence (P08173 1-479): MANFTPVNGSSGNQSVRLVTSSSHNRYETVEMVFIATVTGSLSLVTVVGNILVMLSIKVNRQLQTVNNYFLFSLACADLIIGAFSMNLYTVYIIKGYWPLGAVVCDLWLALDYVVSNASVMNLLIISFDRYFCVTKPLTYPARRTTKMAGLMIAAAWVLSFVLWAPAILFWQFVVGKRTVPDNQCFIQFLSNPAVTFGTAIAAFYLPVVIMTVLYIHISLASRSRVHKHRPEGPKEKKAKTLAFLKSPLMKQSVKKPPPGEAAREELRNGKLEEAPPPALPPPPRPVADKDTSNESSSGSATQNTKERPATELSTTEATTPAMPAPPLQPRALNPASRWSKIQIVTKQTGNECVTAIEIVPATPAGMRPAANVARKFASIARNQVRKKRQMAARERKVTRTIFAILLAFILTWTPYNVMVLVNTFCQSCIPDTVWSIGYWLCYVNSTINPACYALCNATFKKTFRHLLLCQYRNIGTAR
The experiment can be described thus: human FLIPR-based M4 PAM assay (calcium mobilization, CHO-K1 cells with human M4 receptor and Gαqi5). The class given is cell-based. The conditions noted are these: inflection point (IP) of dose response curve, acetylcholine added at 20% of maximum response, read-out: M4 FLIPPR Hu IP. On the procedure:
In a typical experiment the M4 muscarinic acetylcholine receptor modulating activity of the compounds of the present invention was determined in accordance with the following experimental method. CHO-K1 cells stably transfected with human M4 receptor and chimeric G-protein Gαqi5 (Coward P, et al., Analytical Biochemistry, 270:242-248 (1999)) are thawed from liquid N2 storage, resuspended in growth medium, plated in black, clear bottom 384 well plates, and incubated 16-20 hours at 37° C., 5% CO2. On the day of assay, growth medium is removed, the cells are washed 2 times with wash buffer, and cells are incubated in dye loading buffer at 37° C., 5% CO2 for ˜1 hour. Following dye loading the cell plates are placed in a FLIPR Tetra instrument and while monitoring dye fluorescence (excitation […]), 10 uL of test substance at increasing concentrations is added, and fluorescence values are recorded for 4 min. Next, 10 uL of acetylcholine is added (final concentration calculated so as to achieve 20% of the maximum acetycholine response), and the fluorescence reading is continued for 3.5 min. In some cases, a third addition of acetylcholine (final concentration calculated to achieve 70% of the maximal acetylcholine response) is performed. The resulting dose response curves are fit to a 4 parameter logistic equation and the final result is determined as the inflection point (IP) of the curve
CHO-K1 cells stably transfected with human M4 receptor and chimeric G-protein Gαqi5 are thawed from liquid N2 storage, resuspended in growth medium, plated in black, clear bottom 384 well plates, and incubated 16-20 hours at 37° C., 5% CO2.
On the day of assay, growth medium is removed, the cells are washed 2 times with wash buffer, and cells are incuabted in dye loading buffer at 37° C., 5% CO2 for ˜1 h. Following dye loading the cell plates are placed in a FLIPR Tetra instrument and while monitoring dye fluorescence ([…]), 10 uL of test substance at increasing concentrations is added, and fluorescence values are recorded for 4 min. Next, 10 uL of acetylcholine is added (final concentration calculated so as to achieve 20% of the maximum acetycholine response), and the fluorescence reading is continued for 3.5 min. In some cases, a third addition of acetylcholine (final concentration calculated to achieve 70% of the maximal acetylcholine response) is performed.
On the technique in general: A change in cytosolic calcium serves as a functional read-out for many receptors and channels.

Regarding `CN1Cc2ccc(-c3nc(C#N)ccc3-c3cnc(CC(C)(C)C(F)(F)F)o3)cc2C1=O` [Example 22, 6-(2-methyl-3-oxoisoindolin-5-yl)-5-(2-(3,3,3-trifluoro-2,2-dimethylpropyl)-oxazol-5-yl)picolino-nitrile], the EC50 is 76 nM.

`CC(C)(Cc1ncc(-c2ccc(C#N)nc2-c2ccc3cccnc3c2)o1)C(F)(F)F` [Example 23, 6-(quinolin-7-yl)-5-(2-(3,3,3-trifluoro-2,2-dimethylpropyl)-oxazol-5-yl)picolino-nitrile]: the EC50 was found to be 104 nM.

Take `CC(C)(Cc1ncc(-c2ccc(C(F)F)nc2-c2ccc3cccnc3c2)o1)C(F)(F)F` [Example 24, 5-(6-(difluoro-methyl)-2-(quinolin-7-yl)pyridin-3-yl)-2-(3,3,3-trifluoro-2,2-dimethylpropyl)-oxazole]: the EC50 is 136 nM.

With `CC(C)(Cc1ncc(-c2ccc(C(F)F)nc2-c2ccn3ccnc3c2)o1)C(F)(F)F` [Example 25, 5-(6-(difluoromethyl)-2-(imidazo[1,2-a]-pyridin-7-yl)pyridin-3-yl)-2-(3,3,3-trifluoro-2,2-dimethylpropyl)-oxazole], the EC50 worked out at 35 nM.

Consider `CN1Cc2ccc(-c3nc(C(F)F)ccc3-c3cnc(CC(C)(C)C(F)(F)F)o3)cc2C1=O` [Example 26, 6-(6-(difluoromethyl)-3-(2-(3,3,3-trifluoro-2,2-dimethylpropyl)-oxazol-5-yl)pyridin-2-yl)-2-methylisoindolin-1-one], for which the EC50 worked out at 63 nM.

As for `CC(C)(C)Cc1ncc(-c2cc(F)cnc2-c2ccn3ccnc3c2)o1` [Example 27, 5-(5-fluoro-2-(imidazo[1,2-a]-pyridin-7-yl)-pyridin-3-yl)-2-neopentyloxazole], the EC50 amounted to 113 nM.

For the compound `CC(C)(Cc1ncc(-c2ccc(C#N)nc2-c2ccn3ccnc3c2)o1)C(F)(F)F` [Example 28, 6-(imidazo[1,2-a]-pyridin-7-yl)-5-(2-(3,3,3-trifluoro-2,2-dimethylpropyl)-oxazol-5-yl)picolino-nitrile], the EC50 amounted to 122 nM.

As for `N#Cc1ccc(-c2cnc(CC3CCC3)o2)c(-c2ccc3cccnc3c2)n1` [Example 29, 5-(2-(cyclobutyl-methyl)oxazol-5-yl)-6-(quinolin-7-yl)-picolinonitrile], the EC50 was determined as 30 nM.

Consider `CC(C)(C)Cc1ncc(-c2ccc(C(F)F)nc2-c2ccn3cnnc3c2)o1` [Example 30, 5-(2-([1,2,4]triazolo-[4,3-a]pyridin-7-yl)-6-(difluoromethyl)-pyridin-3-yl)-2-neo-pentyloxazole], for which the EC50 was 86 nM.

Take `CC(C)CCc1ncc(-c2ccc(C#N)nc2-c2ccc3cccnc3c2)o1` [Example 31, 5-(2-isopentyloxazol-5-yl)-6-(quinolin-7-yl)picolinonitrile]: the EC50 came out at 43 nM.

`Cc1cn2ccc(-c3nc(C#N)ccc3-c3cnc(CC(C)(C)C)o3)cc2n1` [Example 32, 6-(2-methylimidazo-[1,2-a]pyridin-7-yl)-5-(2-neopentyloxazol-5-yl)picolinonitrile]: the EC50 was determined as 69 nM.

On to `Cc1cn2ccc(-c3nc(C#N)ccc3-c3cnc(CC(C)(C)C(F)(F)F)o3)cc2n1` [Example 33, 6-(2-methylimidazol-[1,2-a]pyridin-7-yl)-5-(2-(3,3,3-trifluoro-2,2-dimethylpropyl)-oxazol-5-yl)picolino-nitrile], for which the EC50 is 72 nM.

Regarding `Cc1nc2cc(-c3nc(C#N)ccc3-c3cnc(CC(C)(C)C)o3)ccn2n1` [Example 34, 6-(2-methyl[1,2,4]-triazolo[1,5-a]pyridin-7-yl)-5-(2-neopentyl-oxazol-5-yl)picolino-nitrile], the EC50 turned out to be 107 nM.

In the case of `Cc1nnc2cc(-c3nc(C#N)ccc3-c3cnc(CC(C)(C)C)o3)ccn12` [Example 35, 6-(3-methyl-[1,2,4]-triazolo[4,3-a]pyridin-7-yl)-5-(2-neopentyl-oxazol-5-yl)picolino-nitrile], the EC50 was 130 nM.

With `CC(C)(C)Cc1ncc(-c2ccc3cncn3c2-c2ccn3ccnc3c2)o1` [Example 36, 5-(5-(imidazo[1,2-a]-pyridin-7-yl)imidazo-[1,5-a]pyridin-6-yl)-2-neopentyloxazole], the EC50 came out at 75 nM.

Turning to `COCc1cn2ccc(-c3nc(C#N)ccc3-c3cnc(CC(C)(C)C)o3)cc2n1` [Example 37, 6-(2-(methoxy-methyl)imidazo-[1,2-a]pyridin-7-yl)-5-(2-neopentyl-oxazol-5-yl)picolino-nitrile], the EC50 stood at 78 nM.

Regarding `CC(C)(C)Cc1ncc(-c2ccc(C#N)nc2-c2cnc3c(c2)C(=O)N(CC2CC2)C3)o1` [Example 39, 6-(6-(cyclopropyl-methyl)-5-oxo-6,7-dihydro-5H-pyrrolo[3,4-b]-pyridin-3-yl)-5-(2-neopentyloxazol-5-yl)picolinonitrile], the EC50 was found to be 93 nM.

Turning to `CC(CCc1ncc(-c2ccc(C#N)nc2-c2ccn3ccnc3c2)o1)C(F)(F)F` (stereo not drawn) [Example 40, 6-(imidazo[1,2-a]-pyridin-7-yl)-5-(2-(4,4,4-trifluoro-3-methylbutyl)oxazol-5-yl)picolinonitrile], the EC50 came to 46 nM.

As to `CN1Cc2ccc(-c3nc4c(cc3-c3cnc(CC5(C)CCCC5)o3)CCC4=O)cc2C1=O` [Example 41, 2-(2-methyl-3-oxoisoindolin-5-yl)-3-(2-((1-methyl-cyclopentyl)-methyl)oxazol-5-yl)-5,6-dihydro-7H-cyclopenta[b]-pyridin-7-one], the EC50 was 45 nM.

Consider `CC1(Cc2ncc(-c3cc4c(nc3-c3ccc5ccc(F)nc5c3)C(O)CC4)o2)CCCC1` (stereo not drawn) [Example 42, 2-(2-fluoroquinolin-7-yl)-3-(2-((1-methylcyclopentyl)methyl)oxazol-5-yl)-6,7-dihydro-5H-cyclopenta[b]pyridin-7-ol], for which the EC50 worked out at 65 nM.

On to `CC1(Cc2ncc(-c3cc4c(nc3-c3ccc5ccc(F)nc5c3)C(=O)CC4)o2)CCCC1` [Example 43, 2-(2-fluoroquinolin-7-yl)-3-(2-((1-methylcyclopentyl)methyl)oxazol-5-yl)-5,6-dihydro-7H-cyclopenta[b]pyridin-7-one], for which the EC50 amounted to 43 nM.

Consider `Cc1ccc(-c2cnc(CC3CCCC3)o2)c(-c2ccc3c(c2)C(=O)N(C)C3)n1` [Example 46, 6-(3-(2-(cyclopentylmethyl)oxazol-5-yl)-6-methylpyridin-2-yl)-2-methylisoindolin-1-one], for which the EC50 came out at 13 nM.

Regarding `Cc1ccc(-c2cnc(Cc3ccccc3)o2)c(-c2ccc3cccnc3c2)n1` [Example 47, 2-benzyl-5-(6-methyl-2-(quinolin-7-yl)pyridin-3-yl)oxazole], the EC50 was 24 nM.

Take `COc1cc2ccc(-c3nc(C)ccc3-c3cnc(Cc4ccccc4F)o3)cc2nn1` [Example 48, 2-(2-fluorobenzyl)-5-(2-(3-methoxycinnolin-7-yl)-6-methylpyridin-3-yl)oxazole]: the EC50 worked out at 19 nM.

For `Cn1cnc2cc(-c3nc(C(F)F)ccc3-c3cnc(CC4CCCC4)o3)cnc21` [Example 49, 2-(cyclopentylmethyl)-5-(6-(difluoromethyl)-2-(3-methyl-3H-imidazo[4,5-b]pyridin-6-yl)pyridin-3-yl) oxazole], the EC50 amounted to 45 nM.

Regarding `N#Cc1ccc(-c2cnc(CC3CCCC3)o2)c(-c2ccc3cccnc3c2)n1` [Example 50, 5-(2-(cyclopentylmethyl)oxazol-5-yl)-6-(quinolin-7-yl)picolinonitrile], the EC50 worked out at 24 nM.

Consider `N#Cc1ccc(-c2cnc(CC3CCCC3)o2)c(-c2cnc3c(c2)C(=O)N(CC2CC2)C3)n1` [Example 51, 5-(2-(cyclopentylmethyl)oxazol-5-yl)-6-(6-(cyclopropylmethyl)-5-oxo-6,7-dihydro-5H-pyrrolo[3,4-b]pyridin-3-yl) picolinonitrile], for which the EC50 was determined as 42 nM.
